Read-outs that look alike come from different tables or passages of the source.
System: patients with locally advanced or metastatic solid tumors
Source text: This was a Phase Ib, multicenter, open-label, dose-finding clinical trial (NCT02610075). […] Three types of treatment schedules were investigated: cohorts bid 1, bid 2, qd 1.1, qd 2.1 and qd 3.1 received bid or qd treatment on a 5/9 schedule (5 days on treatment, followed by 9 days off) on a 14-day cycle. Cohorts qd 1.2, qd 2.2, and qd 3.2 received treatment on a 5/2 schedule (5 days on followed by 2 days off for 2 of 3 weeks) in a 21-day cycle. Cohorts qd 2.3 and qd 3.3 received treatment on a weekly 5/2 schedule in a 21-day cycle (Table 1). The highest dose level(s) at which less than one-third of evaluable patients (none of 3 patients or 1 of 6 patients) experienced a dose-limiting toxicity (DLT) was declared the MTD.
The per protocol analysis set was defined as a subset of the full analysis set, excluding subjects having an important protocol deviation, to be used for analyses of efficacy endpoints if appropriate.

[1] = qd 3.3: 300 mg 5/2 weekly (n=2)

For `C=CCn1c(=O)c2cnc(Nc3ccc(N4CCN(C)CC4)cc3)nc2n1-c1cccc(C(C)(C)O)n1` [adavosertib, Adavosertib], the “Dehydration (treatment-emergent AE)” value (qd 3.1: 300 mg qd 5/9 (n=4)) was 1 (25.0) n (%), the “Dehydration (treatment-related AE)” value (qd 3.1: 300 mg qd 5/9 (n=4)) was 0 n (%) and the “Diarrhea (treatment-emergent AE)” value (qd 3.1: 300 mg qd 5/9 (n=4)) was 0 n (%). The “Diarrhea (treatment-related AE)” value (qd 3.1: 300 mg qd 5/9 (n=4)) was 0 n (%), the “Dizziness (treatment-emergent AE)” value (qd 3.1: 300 mg qd 5/9 (n=4)) was 2 (50.0) n (%) and the “Dyspepsia (treatment-emergent AE)” value (qd 3.1: 300 mg qd 5/9 (n=4)) was 0 n (%). The “Dyspepsia (treatment-related AE)” value (qd 3.1: 300 mg qd 5/9 (n=4)) was 0 n (%), the “Dyspnea (treatment-emergent AE)” value (qd 3.1: 300 mg qd 5/9 (n=4)) was 2 (50.0) n (%) and the “Edema peripheral (treatment-emergent AE)” value (qd 3.1: 300 mg qd 5/9 (n=4)) was 2 (50.0) n (%). For the same compound, the “Fall (treatment-emergent AE)” value (qd 3.1: 300 mg qd 5/9 (n=4)) was 0 n (%), the “Fatigue (treatment-emergent AE)” value (qd 3.1: 300 mg qd 5/9 (n=4)) was 2 (50.0) n (%) and the “Fatigue (treatment-related AE)” value (qd 3.1: 300 mg qd 5/9 (n=4)) was 1 (25.0) n (%). For the same compound, the “Headache (treatment-emergent AE)” value (qd 3.1: 300 mg qd 5/9 (n=4)) was 0 n (%), the “Hypokalemia (treatment-emergent AE)” value (qd 3.1: 300 mg qd 5/9 (n=4)) was 0 n (%) and the “Insomnia (treatment-emergent AE)” value (qd 3.1: 300 mg qd 5/9 (n=4)) was 1 (25.0) n (%). For the same compound, the “Muscle spasms (treatment-emergent AE)” value (qd 3.1: 300 mg qd 5/9 (n=4)) was 1 (25.0) n (%), the “Myalgia (treatment-emergent AE)” value (qd 3.1: 300 mg qd 5/9 (n=4)) was 1 (25.0) n (%) and the “Myalgia (treatment-related AE)” value (qd 3.1: 300 mg qd 5/9 (n=4)) was 1 (25.0) n (%). For the same compound, the “Nausea (treatment-emergent AE)” value (qd 3.1: 300 mg qd 5/9 (n=4)) was 2 (50.0) n (%), the “Nausea (treatment-related AE)” value (qd 3.1: 300 mg qd 5/9 (n=4)) was 2 (50.0) n (%) and the “Neutropenia (treatment-emergent AE)” value (qd 3.1: 300 mg qd 5/9 (n=4)) was 0 n (%). The “Neutropenia (treatment-related AE)” value (qd 3.1: 300 mg qd 5/9 (n=4)) was 0 n (%), the “Pneumonia (treatment-emergent AE)” value (qd 3.1: 300 mg qd 5/9 (n=4)) was 0 n (%) and the “Pyrexia (treatment-emergent AE)” value (qd 3.1: 300 mg qd 5/9 (n=4)) was 0 n (%). The “Rash (treatment-emergent AE)” value (qd 3.1: 300 mg qd 5/9 (n=4)) was 0 n (%), the “Thrombocytopenia (treatment-emergent AE)” value (qd 3.1: 300 mg qd 5/9 (n=4)) was 1 (25.0) n (%) and the “Thrombocytopenia (treatment-related AE)” value (qd 3.1: 300 mg qd 5/9 (n=4)) was 1 (25.0) n (%). The “Urinary tract infection (treatment-emergent AE)” value (qd 3.1: 300 mg qd 5/9 (n=4)) was 0 n (%), the “Vomiting (treatment-emergent AE)” value (qd 3.1: 300 mg qd 5/9 (n=4)) was 0 n (%) and the “Vomiting (treatment-related AE)” value (qd 3.1: 300 mg qd 5/9 (n=4)) was 0 n (%). The “Abdominal pain (treatment-emergent AE)” value (qd 3.2: 300 mg qd 5/2 (n=16)) was 4 (25.0) n (%), the “Abdominal pain (treatment-related AE)” value (qd 3.2: 300 mg qd 5/2 (n=16)) was 2 (12.5) n (%) and the “Alanine aminotransferase increased (treatment-emergent AE)” value (qd 3.2: 300 mg qd 5/2 (n=16)) was 0 n (%). The “Anemia (treatment-emergent AE)” value (qd 3.2: 300 mg qd 5/2 (n=16)) was 8 (50.0) n (%), the “Anemia (treatment-related AE)” value (qd 3.2: 300 mg qd 5/2 (n=16)) was 6 (37.5) n (%) and the “Any AE (treatment-emergent)” value (qd 3.2: 300 mg qd 5/2 (n=16)) was 16 (100.0) n (%). The “Any grade ≥ 3 AE” value (qd 3.2: 300 mg qd 5/2 (n=16)) was 12 (75.0) n (%), the “Any treatment-related AE” value (qd 3.2: 300 mg qd 5/2 (n=16)) was 16 (100.0) n (%) and the “Any treatment-related grade ≥ 3 AE” value (qd 3.2: 300 mg qd 5/2 (n=16)) was 8 (50.0) n (%). For the same compound, the “Asthenia (treatment-emergent AE)” value (qd 3.2: 300 mg qd 5/2 (n=16)) was 4 (25.0) n (%), the “Asthenia (treatment-related AE)” value (qd 3.2: 300 mg qd 5/2 (n=16)) was 2 (12.5) n (%) and the “Back pain (treatment-emergent AE)” value (qd 3.2: 300 mg qd 5/2 (n=16)) was 4 (25.0) n (%). For the same compound, the “Constipation (treatment-emergent AE)” value (qd 3.2: 300 mg qd 5/2 (n=16)) was 4 (25.0) n (%), the “Constipation (treatment-related AE)” value (qd 3.2: 300 mg qd 5/2 (n=16)) was 0 n (%) and the “Cough (treatment-emergent AE)” value (qd 3.2: 300 mg qd 5/2 (n=16)) was 2 (12.5) n (%). For the same compound, the “Decreased appetite (treatment-emergent AE)” value (qd 3.2: 300 mg qd 5/2 (n=16)) was 5 (31.3) n (%), the “Decreased appetite (treatment-related AE)” value (qd 3.2: 300 mg qd 5/2 (n=16)) was 4 (25.0) n (%) and the “Dehydration (treatment-emergent AE)” value (qd 3.2: 300 mg qd 5/2 (n=16)) was 7 (43.8) n (%). For the same compound, the “Dehydration (treatment-related AE)” value (qd 3.2: 300 mg qd 5/2 (n=16)) was 1 (6.3) n (%), the “Diarrhea (treatment-emergent AE)” value (qd 3.2: 300 mg qd 5/2 (n=16)) was 9 (56.3) n (%) and the “Diarrhea (treatment-related AE)” value (qd 3.2: 300 mg qd 5/2 (n=16)) was 9 (56.3) n (%). For the same compound, the “Dizziness (treatment-emergent AE)” value (qd 3.2: 300 mg qd 5/2 (n=16)) was 4 (25.0) n (%), the “Dyspepsia (treatment-emergent AE)” value (qd 3.2: 300 mg qd 5/2 (n=16)) was 2 (12.5) n (%) and the “Dyspepsia (treatment-related AE)” value (qd 3.2: 300 mg qd 5/2 (n=16)) was 2 (12.5) n (%). The “Dyspnea (treatment-emergent AE)” value (qd 3.2: 300 mg qd 5/2 (n=16)) was 3 (18.8) n (%), the “Edema peripheral (treatment-emergent AE)” value (qd 3.2: 300 mg qd 5/2 (n=16)) was 4 (25.0) n (%) and the “Fall (treatment-emergent AE)” value (qd 3.2: 300 mg qd 5/2 (n=16)) was 3 (18.8) n (%). The “Fatigue (treatment-emergent AE)” value (qd 3.2: 300 mg qd 5/2 (n=16)) was 9 (56.3) n (%), the “Fatigue (treatment-related AE)” value (qd 3.2: 300 mg qd 5/2 (n=16)) was 8 (50.0) n (%) and the “Headache (treatment-emergent AE)” value (qd 3.2: 300 mg qd 5/2 (n=16)) was 1 (6.3) n (%). The “Hypokalemia (treatment-emergent AE)” value (qd 3.2: 300 mg qd 5/2 (n=16)) was 4 (25.0) n (%), the “Insomnia (treatment-emergent AE)” value (qd 3.2: 300 mg qd 5/2 (n=16)) was 0 n (%) and the “Muscle spasms (treatment-emergent AE)” value (qd 3.2: 300 mg qd 5/2 (n=16)) was 1 (6.3) n (%). For the same compound, the “Myalgia (treatment-emergent AE)” value (qd 3.2: 300 mg qd 5/2 (n=16)) was 3 (18.8) n (%), the “Myalgia (treatment-related AE)” value (qd 3.2: 300 mg qd 5/2 (n=16)) was 1 (6.3) n (%) and the “Nausea (treatment-emergent AE)” value (qd 3.2: 300 mg qd 5/2 (n=16)) was 9 (56.3) n (%). For the same compound, the “Nausea (treatment-related AE)” value (qd 3.2: 300 mg qd 5/2 (n=16)) was 7 (43.8) n (%), the “Neutropenia (treatment-emergent AE)” value (qd 3.2: 300 mg qd 5/2 (n=16)) was 4 (25.0) n (%) and the “Neutropenia (treatment-related AE)” value (qd 3.2: 300 mg qd 5/2 (n=16)) was 4 (25.0) n (%). The “Pneumonia (treatment-emergent AE)” value (qd 3.2: 300 mg qd 5/2 (n=16)) was 4 (25.0) n (%), the “Pyrexia (treatment-emergent AE)” value (qd 3.2: 300 mg qd 5/2 (n=16)) was 3 (18.8) n (%) and the “Rash (treatment-emergent AE)” value (qd 3.2: 300 mg qd 5/2 (n=16)) was 2 (12.5) n (%). The “Thrombocytopenia (treatment-emergent AE)” value (qd 3.2: 300 mg qd 5/2 (n=16)) was 3 (18.8) n (%), the “Thrombocytopenia (treatment-related AE)” value (qd 3.2: 300 mg qd 5/2 (n=16)) was 3 (18.8) n (%) and the “Urinary tract infection (treatment-emergent AE)” value (qd 3.2: 300 mg qd 5/2 (n=16)) was 3 (18.8) n (%). For the same compound, the “Vomiting (treatment-emergent AE)” value (qd 3.2: 300 mg qd 5/2 (n=16)) was 5 (31.3) n (%), the “Vomiting (treatment-related AE)” value (qd 3.2: 300 mg qd 5/2 (n=16)) was 4 (25.0) n (%) and the “Abdominal pain (treatment-emergent AE)” value [1] was 1 (50.0) n (%). For the same compound, the “Abdominal pain (treatment-related AE)” value [1] was 1 (50.0) n (%), the “Alanine aminotransferase increased (treatment-emergent AE)” value [1] was 0 n (%) and the “Anemia (treatment-emergent AE)” value [1] was 0 n (%). The “Anemia (treatment-related AE)” value [1] was 0 n (%), the “Any AE (treatment-emergent)” value [1] was 2 (100.0) n (%) and the “Any grade ≥ 3 AE” value [1] was 1 (50.0) n (%). The “Any treatment-related AE” value [1] was 2 (100.0) n (%), the “Any treatment-related grade ≥ 3 AE” value [1] was 1 (50.0) n (%) and the “Asthenia (treatment-emergent AE)” value [1] was 0 n (%). For the same compound, the “Asthenia (treatment-related AE)” value [1] was 0 n (%), the “Back pain (treatment-emergent AE)” value [1] was 0 n (%) and the “Constipation (treatment-emergent AE)” value [1] was 0 n (%). For the same compound, the “Constipation (treatment-related AE)” value [1] was 0 n (%), the “Cough (treatment-emergent AE)” value [1] was 0 n (%) and the “Decreased appetite (treatment-emergent AE)” value [1] was 0 n (%). For the same compound, the “Decreased appetite (treatment-related AE)” value [1] was 0 n (%), the “Dehydration (treatment-emergent AE)” value [1] was 0 n (%) and the “Dehydration (treatment-related AE)” value [1] was 0 n (%). For the same compound, the “Diarrhea (treatment-emergent AE)” value [1] was 2 (100.0) n (%), the “Diarrhea (treatment-related AE)” value [1] was 2 (100.0) n (%) and the “Dizziness (treatment-emergent AE)” value [1] was 1 (50.0) n (%). The “Dyspepsia (treatment-emergent AE)” value [1] was 0 n (%), the “Dyspepsia (treatment-related AE)” value [1] was 0 n (%) and the “Dyspnea (treatment-emergent AE)” value [1] was 0 n (%). The “Edema peripheral (treatment-emergent AE)” value [1] was 0 n (%), the “Fall (treatment-emergent AE)” value [1] was 0 n (%) and the “Fatigue (treatment-emergent AE)” value [1] was 0 n (%). The “Fatigue (treatment-related AE)” value [1] was 0 n (%), the “Headache (treatment-emergent AE)” value [1] was 0 n (%) and the “Hypokalemia (treatment-emergent AE)” value [1] was 1 (50.0) n (%). For the same compound, the “Insomnia (treatment-emergent AE)” value [1] was 0 n (%), the “Muscle spasms (treatment-emergent AE)” value [1] was 0 n (%) and the “Myalgia (treatment-emergent AE)” value [1] was 1 (50.0) n (%). For the same compound, the “Myalgia (treatment-related AE)” value [1] was 0 n (%), the “Nausea (treatment-emergent AE)” value [1] was 2 (100.0) n (%) and the “Nausea (treatment-related AE)” value [1] was 2 (100) n (%). The “Neutropenia (treatment-emergent AE)” value [1] was 1 (50.0) n (%) and the “Neutropenia (treatment-related AE)” value [1] was 1 (50.0) n (%).
